Values after ≈ are worked out from the molar mass of the structure shown.
Legend:
Rattus norvegicus [1] = experiment: Anti-inflammatory activity in Rattus norvegicus Wistar albino (rat) assessed as inhibition of carrageenan-induced paw edema at 100 mg/kg, po administered 1 hr prior to carrageenan-challenge measured at 2 hr relative to control; type: functional
Aspergillus flavus = experiment: Antimicrobial activity against Aspergillus flavus ATCC 15517 after 48 hr by broth micro dilution assay; type: functional; settings: ATCC 15517, 48 h
Candida albicans = experiment: Antimicrobial activity against Candida albicans ATCC 24433 after 48 hr by broth micro dilution assay; type: functional; settings: ATCC 24433, 48 h
Escherichia coli = experiment: Antimicrobial activity against Escherichia coli ATCC 25922 after 24 hr by broth micro dilution assay; type: functional; settings: ATCC 25922, 24 h
Staphylococcus aureus = experiment: Antimicrobial activity against Staphylococcus aureus ATCC 25923 after 24 hr by broth micro dilution assay; type: functional; settings: ATCC 25923, 24 h
Pseudomonas aeruginosa = experiment: Antimicrobial activity against Pseudomonas aeruginosa ATCC 27853 after 24 hr by broth micro dilution assay; type: functional; settings: ATCC 27853, 24 h
HEp-2 = experiment: Cytotoxicity against Homo sapiens (human) Hep2 cells after 24 hr by MTT assay; type: functional, cell-based; settings: HEp-2, 24 h
HeLa = experiment: Cytotoxicity against Homo sapiens (human) HeLa cells after 24 hr by MTT assay; type: functional, cell-based
[2] = Cytotoxicity against Homo sapiens (human) Chang cells after 24 hr by MTT assay; type: functional, cell-based
Rattus norvegicus [3] = experiment: Anti-inflammatory activity in Rattus norvegicus Wistar albino (rat) assessed as carrageenan-induced paw volume at 100 mg/kg, po administered 1 hr prior to carrageenan-challenge measured at 5 hr (reference value: 1.24 +/- 0.0754 mm3); type: functional
Rattus norvegicus [4] = experiment: Anti-inflammatory activity in Rattus norvegicus Wistar albino (rat) assessed as carrageenan-induced paw volume at 100 mg/kg, po administered 1 hr prior to carrageenan-challenge measured at 4 hr (reference value: 1.2825 +/- 0.0862 mm3); type: functional
Rattus norvegicus [5] = experiment: Anti-inflammatory activity in Rattus norvegicus Wistar albino (rat) assessed as carrageenan-induced paw volume at 100 mg/kg, po administered 1 hr prior to carrageenan-challenge measured at 3 hr (reference value: 1.225 +/- 0.0484 mm3); type: functional
Rattus norvegicus [6] = experiment: Anti-inflammatory activity in Rattus norvegicus Wistar albino (rat) assessed as carrageenan-induced paw volume at 100 mg/kg, po administered 1 hr prior to carrageenan-challenge measured at 1 hr (reference value: 1.2075 +/- 0.0405 mm3); type: functional

Compound | inhibition in vivo at 100 mg/kg (Rattus norvegicus [1]) | MIC (Aspergillus flavus) | MIC (Candida albicans) | MIC (Escherichia coli) | MIC (Staphylococcus aureus) | MIC (Pseudomonas aeruginosa) | IC50 (HEp-2) | IC50 (HeLa) | IC50 [2] | Activity (Rattus norvegicus [3]) | Activity (Rattus norvegicus [4]) | Activity (Rattus norvegicus [5]) | Activity (Rattus norvegicus [6])
CC(C)Cc1ccc(C(C)C(=O)O)cc1 (stereo not drawn) [IBUPROFEN] | 65.3% | – | – | – | – | – | – | – | – | – | – | – | –
COc1ccc(-n2c(-c3ccccc3)nc3ccc(Cl)cc3c2=O)cc1 | – | > 100 µg/mL | 12.5 µg/mL (≈ 34.5 µM) | 1.56 µg/mL (≈ 4.3 µM) | 3.12 µg/mL (≈ 8.6 µM) | 3.12 µg/mL (≈ 8.6 µM) | 12.5 µg/mL (≈ 34.5 µM) | < 50 µg/mL | > 25 µg/mL | 1.175 mm3 | 1.14 mm3 | 1.21 mm3 | 1.12 mm3
